From PubChem BioAssay (NCI)
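Five concentrations, 48 hours, 96-well plates. TGI denotes the concentration required for complete inhibition of growth.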

How the values were obtained:
Test in all cases: NCI-60 cell line screen, 48 h
[1] = test system: SN12C renal
[2] = test system: NCI-H23 lung
[3] = test system: NCI-H522 lung
[4] = test system: SK-OV-3 ovarian
[5] = test system: NCI-H226 lung
[6] = test system: RXF 393 renal
[7] = test system: HOP-18 NSCLC
[8] = test system: SNB-75 CNS
[9] = test system: SK-MEL-2 melanoma
[10] = test system: UO-31 renal
[11] = test system: SF-539 CNS
[12] = test system: NCI-H460 lung
[13] = test system: COLO 205 colon
[14] = test system: SF-268 CNS
[15] = test system: UACC-62 melanoma
[16] = test system: SNB-19 CNS
[17] = test system: IGROV1 ovarian
[18] = test system: CAKI-1 renal
[19] = test system: MOLT-4 leukemia
[20] = test system: HCC-2998 colon
[21] = test system: A549 NSCLC
[22] = test system: 786-0 renal
[23] = test system: ACHN renal
[24] = test system: EKVX NSCLC
[25] = test system: HCT-15 colon
[26] = test system: M19-MEL melanoma
[27] = test system: HCT-116 colon
[28] = test system: HT29 colon
[29] = test system: RPMI-8226 leukemia
[30] = test system: LXFL 529 NSCLC
[31] = test system: UACC-257 melanoma
[32] = test system: XF 498 CNS
[33] = test system: SF-295 CNS
[34] = test system: OVCAR-4 ovarian
[35] = test system: LOX IMVI melanoma
[36] = test system: K-562 leukemia
[37] = test system: A498 renal
[38] = test system: SW-620 colon
[39] = test system: DLD-1 colon
[40] = test system: OVCAR-3 ovarian
[41] = test system: SK-MEL-28 melanoma
[42] = test system: HL-60(TB) leukemia
[43] = test system: TK-10 renal
[44] = test system: MALME-3M melanoma
[45] = test system: U251 CNS
[46] = test system: SK-MEL-5 melanoma
[47] = test system: SR leukemia
[48] = test system: CCRF-CEM leukemia
[49] = test system: KM12 colon
[50] = test system: M14 melanoma
[51] = test system: DMS 273 small cell lung
[52] = test system: OVCAR-8 ovarian
[53] = test system: HOP-62 NSCLC
[54] = test system: HOP-92 NSCLC
[55] = test system: SNB-78 CNS
[56] = test system: KM20L2 colon
[57] = test system: OVCAR-5 ovarian

`CC1=C2C(=O)C(C)(C)C=C2C(=O)[C@](C)(O)C12CC2` showed a TGI [1] greater than 1000 nM, a TGI [2] greater than 1000 nM and a TGI [3] of 700 nM. It also gave a TGI [4] greater than 1000 nM, a TGI [5] greater than 1000 nM and a TGI [6] greater than 1000 nM. The TGI [7] was greater than 1000 nM, the TGI [8] was greater than 1000 nM and the TGI [9] was greater than 1000 nM. The TGI [10] was greater than 1000 nM, the TGI [11] was greater than 1000 nM and the TGI [12] was greater than 1000 nM. For the same molecule, the TGI [13] was greater than 1000 nM, the TGI [14] was greater than 1000 nM and the TGI [15] was greater than 1000 nM. For the same molecule, the TGI [16] was greater than 1000 nM, the TGI [17] was greater than 1000 nM and the TGI [18] was greater than 1000 nM. For the same molecule, the TGI [19] was greater than 1000 nM, the TGI [20] was greater than 1000 nM and the TGI [21] was greater than 1000 nM. For the same molecule, the TGI [22] was greater than 1000 nM, the TGI [23] was greater than 1000 nM and the TGI [24] was greater than 1000 nM. The TGI [25] was greater than 1000 nM, the TGI [26] was greater than 1000 nM and the TGI [27] was greater than 1000 nM. The TGI [28] was greater than 1000 nM, the TGI [29] was greater than 1000 nM and the TGI [30] was greater than 1000 nM. For the same molecule, the TGI [31] was greater than 1000 nM, the TGI [32] was greater than 1000 nM and the TGI [33] was greater than 1000 nM. The TGI [34] was greater than 1000 nM, the TGI [35] was greater than 1000 nM and the TGI [36] was greater than 1000 nM. It also gave a TGI [37] greater than 1000 nM, a TGI [38] greater than 1000 nM and a TGI [39] greater than 1000 nM. It also gave a TGI [40] greater than 1000 nM, a TGI [41] greater than 1000 nM and a TGI [42] of 660 nM. It also gave a TGI [43] greater than 1000 nM, a TGI [44] greater than 946 nM and a TGI [45] greater than 1000 nM. The TGI [46] was greater than 612 nM, the TGI [47] was greater than 1000 nM and the TGI [48] was greater than 1000 nM. It also gave a TGI [49] greater than 1000 nM, a TGI [50] greater than 1000 nM and a TGI [51] greater than 464 nM. It also gave a TGI [52] greater than 1000 nM, a TGI [53] greater than 1000 nM and a TGI [54] greater than 1000 nM. For the same molecule, the TGI [55] was greater than 1000 nM, the TGI [56] was greater than 1000 nM and the TGI [57] was greater than 1000 nM.
